Experimental data from PubChem BioAssay AID1259407 (Chemical Carcinogenesis Research Information System (CCRIS), 2018).
Active and inactive are the calls of the source. No rule for the calls is given here.

System: CCRIS mutagenicity, Ames/micronucleus/aberration tests
Test: CCRIS mutagenicity studies
[1] = Test System: AMES SALMONELLA TYPHIMURIUM, Strain/Indicator: TA98, Metabolic Activation: NONE, Method: PREINCUBATION
[2] = Test System: AMES SALMONELLA TYPHIMURIUM, Strain/Indicator: TA100, Metabolic Activation: NONE, Method: PREINCUBATION
[3] = Test System: AMES SALMONELLA TYPHIMURIUM, Strain/Indicator: TA1535, Metabolic Activation: NONE, Method: PREINCUBATION
[4] = Test System: AMES SALMONELLA TYPHIMURIUM, Strain/Indicator: TA97, Metabolic Activation: NONE, Method: PREINCUBATION
[5] = Test System: AMES SALMONELLA TYPHIMURIUM, Strain/Indicator: TA98, Metabolic Activation: HAMSTER, LIVER, S-9, AROCLOR 1254 (10%), Method: PREINCUBATION
[6] = Test System: AMES SALMONELLA TYPHIMURIUM, Strain/Indicator: TA98, Metabolic Activation: HAMSTER, LIVER, S-9, AROCLOR 1254 (30%), Method: PREINCUBATION
[7] = Test System: AMES SALMONELLA TYPHIMURIUM, Strain/Indicator: TA100, Metabolic Activation: HAMSTER, LIVER, S-9, AROCLOR 1254 (10%), Method: PREINCUBATION
[8] = Test System: AMES SALMONELLA TYPHIMURIUM, Strain/Indicator: TA100, Metabolic Activation: HAMSTER, LIVER, S-9, AROCLOR 1254 (30%), Method: PREINCUBATION
[9] = Test System: AMES SALMONELLA TYPHIMURIUM, Strain/Indicator: TA1535, Metabolic Activation: HAMSTER, LIVER, S-9, AROCLOR 1254 (10%), Method: PREINCUBATION
[10] = Test System: AMES SALMONELLA TYPHIMURIUM, Strain/Indicator: TA1535, Metabolic Activation: RAT, LIVER, S-9, AROCLOR 1254 (10%), Method: PREINCUBATION

Measured: mutagenic call

CCOS(=O)(=O)OCC
active: End Point: IN VITRO CHROMOSOMAL ABERRATIONS, Test System: CHL CELLS, Metabolic Activation: RAT, LIVER, S-9, SODIUM PHENOBARBITAL AND 5,6-BENZOFLAVONE active; positive (structural changes) | End Point: In vitro micronucleus, Test System: Chinese Hamster Ovary (CHO-WBL) cells, Metabolic Activation: None active; positive (p<0.01) | [1] active; positive | Test System: AMES SALMONELLA TYPHIMURIUM, Strain/Indicator: TA98, Metabolic Activation: RAT LIVER S-9, PHENOBARBITAL AND BETA-NAPHTHOFLAVONE, Method: PREINCUBATION active; positive | [2] active; positive | Test System: AMES SALMONELLA TYPHIMURIUM, Strain/Indicator: TA100, Metabolic Activation: NONE, Method: STANDARD PLATE active; positive | Test System: AMES SALMONELLA TYPHIMURIUM, Strain/Indicator: TA100, Metabolic Activation: RAT LIVER S-9, PHENOBARBITAL AND BETA-NAPHTHOFLAVONE, Method: PREINCUBATION active; positive | [3] active; positive | Test System: AMES SALMONELLA TYPHIMURIUM, Strain/Indicator: TA1535, Metabolic Activation: NONE, Method: STANDARD PLATE active; positive | Test System: AMES SALMONELLA TYPHIMURIUM, Strain/Indicator: TA1535, Metabolic Activation: RAT LIVER S-9, PHENOBARBITAL AND BETA-NAPHTHOFLAVONE, Method: PREINCUBATION active; positive | Test System: AMES SALMONELLA TYPHIMURIUM, Strain/Indicator: TA1537, Metabolic Activation: NONE, Method: PREINCUBATION active; positive | Test System: AMES SALMONELLA TYPHIMURIUM, Strain/Indicator: TA1537, Metabolic Activation: RAT LIVER S-9, PHENOBARBITAL AND BETA-NAPHTHOFLAVONE, Method: PREINCUBATION active; positive | Test System: CHINESE HAMSTER OVARY, Strain/Indicator: CHO-K1-BH4 (HGPRT), Metabolic Activation: NONE, Method: STANDARD PLATE active; positive | Test System: CHINESE HAMSTER V-79, Strain/Indicator: V-79/6-THIOGUANINE, Metabolic Activation: NONE, Method: FLASK ASSAY active; positive | Test System: E.COLI, Strain/Indicator: WP2UVRA, Metabolic Activation: NONE, Method: PREINCUBATION active; positive | Test System: E.COLI, Strain/Indicator: WP2UVRA, Metabolic Activation: RAT LIVER S-9, PHENOBARBITAL AND BETA-NAPHTHOFLAVONE, Method: PREINCUBATION active; positive

CCCCC(CC)CNCC(CC)CCCC (stereo not given)
inactive: Test System: AMES SALMONELLA TYPHIMURIUM, Strain/Indicator: TA97, Metabolic Activation: HAMSTER, LIVER, S-9, AROCLOR 1254 (10%), Method: PREINCUBATION inactive; negative | Test System: AMES SALMONELLA TYPHIMURIUM, Strain/Indicator: TA97, Metabolic Activation: HAMSTER, LIVER, S-9, AROCLOR 1254 (30%), Method: PREINCUBATION inactive; negative | [4] inactive; negative | Test System: AMES SALMONELLA TYPHIMURIUM, Strain/Indicator: TA97, Metabolic Activation: RAT, LIVER, S-9, AROCLOR 1254 (10%), Method: PREINCUBATION inactive; negative | Test System: AMES SALMONELLA TYPHIMURIUM, Strain/Indicator: TA97, Metabolic Activation: RAT, LIVER, S-9, AROCLOR 1254 (30%), Method: PREINCUBATION inactive; negative | [5] inactive; negative | [6] inactive; negative | [1] inactive; negative | Test System: AMES SALMONELLA TYPHIMURIUM, Strain/Indicator: TA98, Metabolic Activation: RAT, LIVER, S-9, AROCLOR 1254 (10%), Method: PREINCUBATION inactive; negative | Test System: AMES SALMONELLA TYPHIMURIUM, Strain/Indicator: TA98, Metabolic Activation: RAT, LIVER, S-9, AROCLOR 1254 (30%), Method: PREINCUBATION inactive; negative | [7] inactive; negative | [8] inactive; negative | [2] inactive; negative | Test System: AMES SALMONELLA TYPHIMURIUM, Strain/Indicator: TA100, Metabolic Activation: RAT, LIVER, S-9, AROCLOR 1254 (10%), Method: PREINCUBATION inactive; negative | Test System: AMES SALMONELLA TYPHIMURIUM, Strain/Indicator: TA100, Metabolic Activation: RAT, LIVER, S-9, AROCLOR 1254 (30%), Method: PREINCUBATION inactive; negative | [9] inactive; negative | Test System: AMES SALMONELLA TYPHIMURIUM, Strain/Indicator: TA1535, Metabolic Activation: HAMSTER, LIVER, S-9, AROCLOR 1254 (30%), Method: PREINCUBATION inactive; negative | [3] inactive; negative | [10] inactive; negative | Test System: AMES SALMONELLA TYPHIMURIUM, Strain/Indicator: TA1535, Metabolic Activation: RAT, LIVER, S-9, AROCLOR 1254 (30%), Method: PREINCUBATION inactive; negative

O=Nc1ccc(O)cc1
inactive: Test System: AMES SALMONELLA TYPHIMURIUM, Strain/Indicator: TA97, Metabolic Activation: HAMSTER, LIVER, S-9, AROCLOR 1254 (10 OR 30%), Method: PREINCUBATION inactive; negative | [4] inactive; negative | Test System: AMES SALMONELLA TYPHIMURIUM, Strain/Indicator: TA97, Metabolic Activation: RAT, LIVER, S-9, AROCLOR 1254 (10 OR 30%), Method: PREINCUBATION inactive; negative | [5] inactive; negative | Test System: AMES SALMONELLA TYPHIMURIUM, Strain/Indicator: TA98, Metabolic Activation: RAT, LIVER, S-9, AROCLOR 1254 (10 OR 30%), Method: PREINCUBATION inactive; negative | [7] inactive; negative | [2] inactive; negative | Test System: AMES SALMONELLA TYPHIMURIUM, Strain/Indicator: TA100, Metabolic Activation: RAT, LIVER, S-9, AROCLOR 1254 (10 OR 30%), Method: PREINCUBATION inactive; negative | [9] inactive; negative | [3] inactive; negative | [10] inactive; negative
active: [6] active; positive | [1] active; positive | [8] active; positive
